# pIC50: −log10 of the molar value.
# Biological target: T1, human CRHR2-alpha (Homo sapiens, UniProt Q13324)
# T1 sequence (Q13324 1-411): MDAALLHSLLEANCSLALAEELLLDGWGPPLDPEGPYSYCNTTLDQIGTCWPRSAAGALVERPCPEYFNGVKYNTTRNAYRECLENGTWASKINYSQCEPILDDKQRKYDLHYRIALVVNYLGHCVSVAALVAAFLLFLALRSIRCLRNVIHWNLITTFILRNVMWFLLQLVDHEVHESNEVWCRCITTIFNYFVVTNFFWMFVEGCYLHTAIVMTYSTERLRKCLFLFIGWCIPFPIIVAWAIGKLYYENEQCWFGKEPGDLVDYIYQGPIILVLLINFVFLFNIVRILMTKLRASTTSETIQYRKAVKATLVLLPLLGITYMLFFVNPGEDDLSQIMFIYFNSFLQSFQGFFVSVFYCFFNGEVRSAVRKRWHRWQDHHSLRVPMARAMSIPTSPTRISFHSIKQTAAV
# Assay: cAMP functional assay for human CRHR2 (LANCE Ultra cAMP, TR-FRET)
# Type: cell-based
# Settings: CHO-K1 cells expressing human CRHR2-alpha, agonist human urocortin2 at EC80, cAMP; read-out: IC50 against CRHR2
# Protocol: cAMP functional assay for human CRHR1 and CRHR2
# The ability of the compounds of this invention to inhibit either CRHR2 or CRHR1 is assessed by 3′,5′-cyclic adenosine monophosphate (cAMP) production in cells using the LANCE Ultra cAMP assay kit (ParkinElmer), which are designed based on the homogeneous time-resolved fluorescence resonance energy transfer (TR-FRET) immunoassay.
# CHO-K1 (Chinese hamster ovary) cells stably expressing either human CRHR2-alpha (DiscoveRX, Cat. 95-0048C2) or human CRHR1-beta (DiscoveRX, Cat. 95-0047C2) are grown in HAM's F12 media supplemented with 10% fetal bovine serum (FBS), 100 units/mL penicillin, 100 microg/mL hygromycin and 0.5 microg/mL geneticin at 37° C. in 5% CO2 humidified incubator to 80% confluence. After 7 hours starvation treatment in culture media containing 0.1% FBS, the cells are washed with Hanks balanced salt solution (HBSS) and cryopreserved.
# For cAMP assay, frozen cells are thawed and washed with HBSS, followed by resuspended in assay buffer (HBSS containing 0.1% bovine serum albumin, 0.5 mM isobutylmethylxanthine and 5 mM Hepes, pH 7.4) at the appropriate concentration for the assay. The cell suspensions are plated on 384-well microplates (Greiner Bio-One) at a density of 4,000 cells per well. After preincubating the cells with various concentrations of the compounds for 30 min at 25° C., an assay buffer containing EC80 concentration of each agonist is added and the cells are incubated for 30 min at 25° C. Human urocortin2 (Peptide Institute) and CRF (Peptide Institute) are used as agonists for CRHR2 and CRHR1, respectively. For the termination of assay, europium-labeled cAMP tracer and ULight (registered trademark) dye labeled cAMP antibodies, both prepared with Lance-Ultra cAMP detection reagent (Perkin Elmer) are added in the plate and incubate for 60 min at 25° C. After incubation, TR-FRET signal is detected by EnVision plate reader (PerkinElmer). The IC50 values for compounds are calculated from dose-response curves by fitting the percent inhibition using XLfit (ID Business Solutions).
row,pIC50,Compound
1,> 6.52,"COc1cc(-n2c(=O)n(C[C@H]3CC[C@H](NC(=O)c4cc(Cl)cnc4C)CC3)c3ccccc32)cnc1OC [Example 118, 5-chloro-N-((1r,4r)-4-((3-(5,6-dimethoxypyridin-3-yl)-2-oxo-2,3-dihydro-1H-benzo[d]imidazol-1-yl)methyl)cyclo-hexyl)-2-methylnicotinamide]"
2,> 6.52,"Cc1cc(-n2c(=O)n(C[C@H]3CC[C@H](NC(=O)c4cc(Cl)cnc4C)CC3)c3ccccc32)cnc1C [Example 119, 5-chloro-N-((1r,4r)-4-((3-(5,6-dimethylpyridin-3-yl)-2-oxo-2,3-dihydro-1H-benzo[d]imidazol-1-yl)methyl)cyclo-hexyl)-2-methylnicotinamide]"
3,> 6.52,"COc1ncc(-n2c(=O)n(C[C@H]3CC[C@H](NC(=O)c4cc(Cl)cnc4C)CC3)c3ccccc32)cc1C [Example 120, 5-chloro-N-((1r,4r)-4-((3-(6-methoxy-5-methylpyridin-3-yl)-2-oxo-2,3-dihydro-1H-benzo[d]imidazol-1-yl)methyl)cyclohexyl)-2-methylnicotinamide]"
4,> 6.52,"Cc1ccc(-n2c(=O)n(C[C@H]3CC[C@H](NC(=O)c4cc(Cl)cnc4C)CC3)c3cccc(F)c32)cn1 [Example 121, 5-chloro-N-((1r,4r)-4-((4-fluoro-3-(6-methylpyridin-3-yl)-2-oxo-2,3-dihydro-1H-benzo[d]imidazol-1-yl)methyl)cyclo-hexyl)-2-methylnicotinamide]"
5,> 6.52,"Cc1ccc(-n2c(=O)n(C[C@H]3CC[C@H](NC(=O)c4cc(Cl)cnc4C)CC3)c3ccc(F)cc32)cn1 [Example 122, 5-chloro-N-((1r,4r)-4-((5-fluoro-3-(6-methylpyridin-3-yl)-2-oxo-2,3-dihydro-1H-benzo[d]imidazol-1-yl)methyl)cyclo-hexyl)-2-methylnicotinamide]"
6,> 6.52,"Cc1ccc(-n2c(=O)n(C[C@H]3CC[C@H](NC(=O)c4cc(Cl)cnc4C)CC3)c3cc(F)ccc32)cn1 [Example 123, 5-chloro-N-((1r,4r)-4-((6-fluoro-3-(6-methylpyridin-3-yl)-2-oxo-2,3-dihydro-1H-benzo[d]imidazol-1-yl)methyl)cyclo-hexyl)-2-methylnicotinamide]"
7,> 6.52,"Cc1ccc(-n2c(=O)n(C[C@H]3CC[C@H](NC(=O)c4cc(Cl)cnc4C)CC3)c3c(F)cccc32)cn1 [Example 124, 5-chloro-N-((1r,4r)-4-((7-fluoro-3-(6-methylpyridin-3-yl)-2-oxo-2,3-dihydro-1H-benzo[d]imidazol-1-yl)methyl)cyclo-hexyl)-2-methylnicotinamide]"
8,> 6.52,"Cc1ncc(Cl)cc1C(=O)N[C@H]1CC[C@H](Cn2c(=O)n(-c3ccc(NC4CCC4)nc3)c3ccccc32)CC1 [Example 125, 5-chloro-N-((1r,4r)-4-((3-(6-(cyclobutylamino)pyridin-3-yl)-2-oxo-2,3-dihydro-1H-benzo[d]imidazol-1-yl)methyl)cyclo-hexyl)-2-methylnicotinamide]"
9,> 6.52,"COC1CCN(c2ccc(-n3c(=O)n(C[C@H]4CC[C@H](NC(=O)c5cc(Cl)cnc5C)CC4)c4ccccc43)cn2)CC1 [Example 126, 5-chloro-N-((1r,4r)-4-((3-(6-(4-methoxypiperidin-1-yl)pyridin-3-yl)-2-oxo-2,3-di-hydro-1H-benzo[d]imidazol-1-yl)methyl)cyclohexyl)-2-methylnicotinamide]"
10,> 6.52,"Cc1ccc(-n2c(=O)n(C[C@H]3CC[C@H](NC(=O)c4cc(Cl)cnc4C)CC3)c3ccccc32)cc1CO [Example 127, 5-chloro-N-((1r,4r)-4-((3-(3-(hydroxymethyl)-4-methylphenyl)-2-oxo-2,3-dihydro-1H-benzo[d]imidazol-1-yl)methyl)cyclo-hexyl)-2-methylnicotinamide]"
11,> 6.52,"Cc1ncc(Cl)cc1C(=O)N[C@H]1CC[C@H](Cn2c(=O)n(-c3ccc(C(=O)NC4COC4)cc3)c3ccccc32)CC1 [Example 130, 5-chloro-2-methyl-N-((1r,4r)-4-((3-(4-(oxetan-3-ylcarbamoyl)phenyl)-2-oxo-2,3-dihydro-1H-benzo[d]imidazol-1-yl)methyl)cyclohexyl)nicotinamide]"
12,> 6.52,"CNc1ncc(-n2c(=O)n(C[C@H]3CC[C@H](NC(=O)c4cc(Cl)cnc4C)CC3)c3ccccc32)cc1C [Example 133, 5-chloro-2-methyl-N-((1r,4r)-4-((3-(5-methyl-6-(methyl-amino)pyridin-3-yl)-2-oxo-2,3-dihydro-1H-benzo[d]imidazol-1-yl)methyl)cyclohexyl) nicotinamide]"
13,> 6.52,"Cc1ncc(Cl)cc1C(=O)N[C@H]1CC[C@H](Cn2c(=O)n(-c3ccc(OCCCO)nc3)c3ccccc32)CC1 [Example 134, 5-chloro-N-((1r,4r)-4-((3-(6-(3-hydroxypropoxy)pyridin-3-yl)-2-oxo-2,3-dihydro-1H-benzo[d]imidazol-1-yl)methyl)cyclohexyl)-2-methylnicotinamide]"
14,> 6.52,"Cc1ncc(Cl)cc1C(=O)N[C@H]1CC[C@H](Cn2c(=O)n(-c3ccc(OC4COC4)nc3)c3ccccc32)CC1 [Example 140, 5-chloro-2-methyl-N-((1r,4r)-4-((3-(6-(oxetan-3-yloxy)pyridin-3-yl)-2-oxo-2,3-dihydro-1H-benzo[d]imidazol-1-yl)methyl)cyclohexyl)nicotinamide]"
15,> 6.52,"Cc1ncc(Cl)cc1C(=O)N[C@H]1CC[C@H](Cn2c(=O)n(-c3ccc4c(cnn4C)c3)c3ccccc32)CC1 [Example 141, 5-chloro-2-methyl-N-((1r,4r)-4-((3-(1-methyl-1H-indazol-5-yl)-2-oxo-2,3-dihydro-1H-benzo [d]imidazol-1-yl)methyl)cyclohexyl)nicotinamide]"
16,> 6.52,"COC1CN(c2ccc(-n3c(=O)n(C[C@H]4CC[C@H](NC(=O)c5cc(Cl)cnc5C)CC4)c4ccccc43)cn2)C1 [Example 144, 5-chloro-N-((1r,4r)-4-((3-(6-(3-methoxyazetidin-1-yl)pyridin-3-yl)-2-oxo-2,3-dihydro-1H-benzo[d]imidazol-1-yl)methyl)cyclohexyl)-2-methylnicotinamide]"
17,> 6.52,"Cc1ncc(Cl)cc1C(=O)N[C@H]1CC[C@H](Cn2c(=O)n(-c3ccc(N4CC(F)C4)nc3)c3ccccc32)CC1 [Example 145, 5-chloro-N-((1r,4r)-4-((3-(6-(3-fluoroazetidin-1-yl)pyridin-3-yl)-2-oxo-2,3-dihydro-1H-benzo[d]imidazol-1-yl)methyl)cyclo-hexyl)-2-methylnicotinamide]"
18,> 6.52,"Cc1ncc(Cl)cc1C(=O)N[C@H]1CC[C@H](Cn2c(=O)n(-c3ccc(N4CC(F)(F)C4)nc3)c3ccccc32)CC1 [Example 146, 5-chloro-N-((1r,4r)-4-((3-(6-(3,3-difluoroazetidin-1-yl)pyridin-3-yl)-2-oxo-2,3-dihydro-1H-benzo[d]imidazol-1-yl)methyl)cyclo-hexyl)-2-methylnicotinamide]"
19,> 6.52,"Cc1ncc(Cl)cc1C(=O)N[C@H]1CC[C@H](Cn2c(=O)n(-c3ccc(NC4COC4)nc3)c3ccccc32)CC1 [Example 147, 5-chloro-2-methyl-N-((1r,4r)-4-((3-(6-(oxetan-3-ylamino)pyridin-3-yl)-2-oxo-2,3-dihydro-1H-benzo[d]imidazol-1-yl)methyl)cyclo-hexyl)nicotinamide]"
20,> 6.52,"COc1ccc(-n2c(=O)n(C[C@H]3CC[C@H](NC(=O)c4cc(Cl)cnc4C)CC3)c3ccccc32)c(C)n1 [Example 149, 5-chloro-N-((1r,4r)-4-((3-(6-methoxy-2-methylpyridin-3-yl)-2-oxo-2,3-dihydro-1H-benzo[d]imidazol-1-yl)methyl)cyclohexyl)-2-methylnicotinamide]"
21,> 6.52,"CNc1ccc(-n2c(=O)n(C[C@H]3CC[C@H](NC(=O)c4cc(Cl)cnc4C)CC3)c3ccccc32)c(C)n1 [Example 150, 5-chloro-2-methyl-N-((1r,4r)-4-((3-(2-methyl-6-(methylamino)pyridin-3-yl)-2-oxo-2,3-dihydro-1H-benzo[d]imidazol-1-yl)methyl)cyclohexyl)nicotinamide]"
